In US8685970B2, “Quinolines and related analogs as sirtuin modulators” (GlaxoSmithKline, LLC, priority 2008, dated 2014):

Biological target: T1, SIRT1 (Homo sapiens, UniProt Q96EB6)
T1 sequence (Q96EB6 1-747): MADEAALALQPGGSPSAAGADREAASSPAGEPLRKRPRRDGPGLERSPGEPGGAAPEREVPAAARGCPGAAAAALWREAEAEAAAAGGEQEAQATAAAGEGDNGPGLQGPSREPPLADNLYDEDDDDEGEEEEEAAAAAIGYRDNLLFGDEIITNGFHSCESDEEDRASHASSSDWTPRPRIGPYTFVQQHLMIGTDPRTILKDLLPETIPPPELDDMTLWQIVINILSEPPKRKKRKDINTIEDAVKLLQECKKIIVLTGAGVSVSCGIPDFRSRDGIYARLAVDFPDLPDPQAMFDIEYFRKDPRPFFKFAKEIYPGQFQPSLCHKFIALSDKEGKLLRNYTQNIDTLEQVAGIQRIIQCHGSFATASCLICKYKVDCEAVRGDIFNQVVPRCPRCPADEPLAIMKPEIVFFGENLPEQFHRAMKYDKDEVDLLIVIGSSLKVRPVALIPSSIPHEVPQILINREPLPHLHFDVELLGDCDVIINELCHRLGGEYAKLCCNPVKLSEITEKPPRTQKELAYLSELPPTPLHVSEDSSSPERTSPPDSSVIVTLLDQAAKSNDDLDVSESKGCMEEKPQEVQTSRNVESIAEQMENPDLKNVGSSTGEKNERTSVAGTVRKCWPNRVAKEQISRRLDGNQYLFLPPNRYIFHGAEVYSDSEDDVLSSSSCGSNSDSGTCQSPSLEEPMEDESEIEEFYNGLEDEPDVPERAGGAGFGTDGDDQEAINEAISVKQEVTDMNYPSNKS
Assay: Mass spectrometry based SIRT1 deacetylation assay (activation)
Type: biochemical
Settings: 10 nM SIRT1, 0.5 μM peptide substrate, 120 μM βNAD+, 25 min at 25° C.
Summary of the method: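 Recombinant N-His-tagged SIRT1 (E. coli BL21(DE3)), 10 nM, incubated 25 min at 25 °C with 0.5 μM biotin/5TMR-labelled acetyl-p53-derived 20-mer peptide and 120 μM βNAD+ in Tris-acetate pH 8 buffer with DTT and BSA. Formic acid stop; MS quantifies acetylated vs deacetylated peptide. EC1.5 = concentration giving 150% activation versus DMSO.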

Structure (SMILES)	% Fold Act. (percent maximum fold activation)	EC1.5 (concentration of test compound that results in 150% activation of SIRT1)
Cc1cnc(NC(=O)c2cccc3ccc(-c4cccc(OC5CCNCC5)c4)nc23)s1 [Compound 134]	A (Fold activation >200%)	A (EC1.5<1.0 uM)
O=C(Nc1cccc2ccc(-c3ccccc3)nc12)C1CCNCC1 [Compound 43]		C (EC1.5>25 uM)
O=C(Nc1ccc(CN2CCOCC2)cc1)c1cccc2ccc(-c3cccc(C(F)F)c3)nc12 [Compound 303]	A (Fold activation >200%)	A (EC1.5<1.0 uM)
O=C(Nc1nccs1)c1cccc2ncc(-c3cccc(C(F)(F)F)c3)nc12 [Compound 123]		C (EC1.5>25 uM)
O=C(Nc1ncnc2ccc(-c3cccc(OC(F)(F)F)c3)nc12)c1cccc(C(F)(F)F)c1 [Compound 211]		C (EC1.5>25 uM)
O=C(Nc1cccc2ccc(-c3cccnc3)nc12)c1cscn1 [Compound 76]	A (Fold activation >200%)	A (EC1.5<1.0 uM)
O=C(Nc1ncnc2ccc(-c3cccc(OC(F)(F)F)c3)nc12)c1cccnc1 [Compound 210]	A (Fold activation >200%)	B (EC1.5 1-25 uM)
Cn1ccc(C(=O)Nc2cccc3ccc(-c4cccnc4)nc23)n1 [Compound 293]	A (Fold activation >200%)	A (EC1.5<1.0 uM)
O=C(Nc1ccccn1)c1cccc2ccc(-c3cccnc3)nc12 [Compound 182]	B (Fold Activation <200%)	A (EC1.5<1.0 uM)
O=C(Nc1ccncn1)c1cccc2ccc(-c3ccnc(C(F)F)c3)nc12 [Compound 308]	A (Fold activation >200%)	A (EC1.5<1.0 uM)
O=C(Nc1ccccn1)c1cccc2cc(C(F)(F)F)c(-c3ccccc3)nc12 [Compound 184]		C (EC1.5>25 uM)
O=C(Nc1ccc(F)cn1)c1cccc2ccc(-c3cccc(N4CCOCC4)c3)nc12 [Compound 277]	A (Fold activation >200%)	A (EC1.5<1.0 uM)
O=C(NCc1cccnc1)c1cccc2ccc(-c3cccc(OC4CCNCC4)c3)nc12 [Compound 95]	A (Fold activation >200%)	B (EC1.5 1-25 uM)
Cc1cccc(NC(=O)c2cccc3ccc(-c4cccc(N5CCOCC5)c4)nc23)n1 [Compound 268]	A (Fold activation >200%)	A (EC1.5<1.0 uM)
Cn1ccc(C(=O)Nc2cccc3ccc(-c4cncc(F)c4)nc23)n1 [Compound 284]		C (EC1.5>25 uM)
O=C(Nc1cccc2ccc(-c3ccc4c(c3)OCO4)nc12)c1cscn1 [Compound 107]	B (Fold Activation <200%)	A (EC1.5<1.0 uM)
O=C(Nc1cccc2ccc(-c3ccc(F)c(C(F)(F)F)c3)nc12)c1ccncc1 [Compound 161]		C (EC1.5>25 uM)
O=C(Nc1nccs1)c1cccc2cnc(-c3cccc(C(F)(F)F)c3)nc12 [Compound 270]		C (EC1.5>25 uM)
O=C(Nc1nccs1)c1cccc2ccc(-c3ccccc3)nc12 [Compound 12]	A (Fold activation >200%)	A (EC1.5<1.0 uM)
O=C(Nc1ccncc1)c1cccc2ccc(-c3cccc(N4CCOCC4)c3)nc12 [Compound 254]	A (Fold activation >200%)	A (EC1.5<1.0 uM)
FC(F)(F)Oc1cccc(-c2ccc3cccc(NCc4ccccn4)c3n2)c1 [Compound 65]		C (EC1.5>25 uM)
O=C(Nc1cccc2ccc(-c3cccc(F)c3)nc12)c1cscn1 [Compound 74]	B (Fold Activation <200%)	B (EC1.5 1-25 uM)
O=C(Nc1cccnc1)c1cccc2ncc(-c3cccc(OC(F)(F)F)c3)nc12 [Compound 126]	B (Fold Activation <200%)	B (EC1.5 1-25 uM)

Results, then the compound that gave them:

% Fold Act. (percent maximum fold activation)	EC1.5 (concentration of test compound that results in 150% activation of SIRT1)	Structure (SMILES)
B (Fold Activation <200%)	B (EC1.5 1-25 uM)	O=C(Nc1ccccc1)c1cccc2ccc(-c3cccc(OC(F)(F)F)c3)nc12 [Compound 11]
A (Fold activation >200%)	A (EC1.5<1.0 uM)	O=C(Nc1cccc(OCC(O)CO)c1)c1cccc2ccc(-c3cccc(C(F)(F)F)c3)nc12 (stereo not drawn) [Compound 151]
A (Fold activation >200%)	A (EC1.5<1.0 uM)	Cc1nc(NC(=O)c2cccc3ccc(-c4cccc(C(F)(F)F)c4)nc23)sc1C [Compound 52]
A (Fold activation >200%)	A (EC1.5<1.0 uM)	O=C(Nc1nncs1)c1cccc2ccc(-c3cccc(C(F)(F)F)c3)nc12 [Compound 28]
A (Fold activation >200%)	A (EC1.5<1.0 uM)	O=C(Nc1ccc(OCC(O)CO)cc1)c1cccc2ccc(-c3cccc(C(F)(F)F)c3)nc12 (stereo not drawn) [Compound 149]
	C (EC1.5>25 uM)	O=C(Nc1cccc2ccc(-c3cccc(OC(F)(F)F)c3)nc12)c1ccccc1F [Compound 20]
B (Fold Activation <200%)	A (EC1.5<1.0 uM)	Cc1nnc(NC(=O)c2cccc3ccc(-c4cccc(C(F)(F)F)c4)nc23)s1 [Compound 275]
A (Fold activation >200%)	B (EC1.5 1-25 uM)	O=C(NC1CCNCC1)c1cccc2ccc(-c3cccc(C(F)(F)F)c3)nc12 [Compound 71]
A (Fold activation >200%)	A (EC1.5<1.0 uM)	O=C(Nc1ccnc(N2CCCC2)c1)c1cccc2ccc(-c3cccc(C(F)(F)F)c3)nc12 [Compound 322]
	C (EC1.5>25 uM)	O=C(Nc1cccnc1)c1cccc2ccc(-c3ccc(C(F)(F)F)cc3)nc12 [Compound 98]
A (Fold activation >200%)	A (EC1.5<1.0 uM)	COC(=O)c1ccc(NC(=O)c2cccc3ccc(-c4cccc(C(F)(F)F)c4)nc23)o1 [Compound 61]
A (Fold activation >200%)	A (EC1.5<1.0 uM)	O=C(Nc1ccc(CN2CCCC2)nc1)c1cccc2ccc(-c3cccc(C(F)(F)F)c3)nc12 [Compound 292]
